{"source": "patent US6593480B2", "about": "(Abbott Laboratories, priority 1999, dated 2003)", "data": [{"biological_target": "T1, progesterone receptor (PR) (Homo sapiens, UniProt P06401)", "T1 sequence (P06401 1-933)": "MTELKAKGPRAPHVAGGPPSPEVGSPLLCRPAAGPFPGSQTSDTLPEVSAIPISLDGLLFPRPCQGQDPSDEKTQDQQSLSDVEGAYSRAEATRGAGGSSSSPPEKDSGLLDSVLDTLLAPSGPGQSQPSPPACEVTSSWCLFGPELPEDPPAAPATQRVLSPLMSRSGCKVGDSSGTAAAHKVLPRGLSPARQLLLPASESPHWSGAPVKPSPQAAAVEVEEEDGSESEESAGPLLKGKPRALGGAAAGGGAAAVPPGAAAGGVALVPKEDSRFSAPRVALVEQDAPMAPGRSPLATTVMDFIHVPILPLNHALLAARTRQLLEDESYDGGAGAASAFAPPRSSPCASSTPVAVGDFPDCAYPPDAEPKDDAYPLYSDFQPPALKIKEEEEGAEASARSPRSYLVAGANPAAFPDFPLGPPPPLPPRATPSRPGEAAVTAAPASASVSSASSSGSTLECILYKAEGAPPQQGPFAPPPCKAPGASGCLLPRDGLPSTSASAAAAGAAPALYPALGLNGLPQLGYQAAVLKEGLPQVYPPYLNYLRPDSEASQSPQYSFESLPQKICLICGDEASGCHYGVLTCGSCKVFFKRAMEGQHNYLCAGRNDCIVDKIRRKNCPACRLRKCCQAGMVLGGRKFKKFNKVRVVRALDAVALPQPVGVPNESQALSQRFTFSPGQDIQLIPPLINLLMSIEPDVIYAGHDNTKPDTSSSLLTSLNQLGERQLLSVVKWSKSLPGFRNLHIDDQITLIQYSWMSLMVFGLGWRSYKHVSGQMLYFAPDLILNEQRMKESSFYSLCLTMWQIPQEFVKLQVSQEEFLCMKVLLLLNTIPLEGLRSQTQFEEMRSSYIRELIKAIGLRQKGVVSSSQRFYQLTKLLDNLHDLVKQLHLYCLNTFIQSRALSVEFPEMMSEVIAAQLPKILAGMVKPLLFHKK", "test": "Radioligand binding assay with progesterone receptor cytosol (similar protocol)", "description": "Methods for Radioligand Binding Studies with Human Glucocorticoid and Progesterone Receptor Cytosol\nA similar protocol was employed to measure affinity of the compounds of the present invention for progesterone receptor (PR).", "units": {"IC50": "nM"}, "values": [{"smiles": "CCOC(=O)c1cccc(C2Oc3cccc(OC(F)F)c3-c3ccc(NS(C)(=O)=O)cc32)c1", "note": "(centres unmarked) [Example 114, ethyl 3-{1-(difluoromethoxy)-8-[(methylsulfonyl)amino]-6H-benzo[c]chromen-6-yl}benzoate]", "IC50": 290}, {"smiles": "COc1cccc2c1-c1ccc(NS(C)(=O)=O)cc1C(c1cccc(N(C)S(C)(=O)=O)c1)O2", "note": "(centres unmarked) [Example 83, N-(1-methoxy-6-{3-[methyl(methylsulfonyl)amino]phenyl}-6H-benzo[c]chromen-8-yl)methanesulfonamide]", "IC50": 3630}, {"smiles": "CS(=O)(=O)Nc1ccc2c(c1)C(c1ccc(Br)cc1)Oc1cccc(OC(F)F)c1-2", "note": "(centres unmarked) [Example 109, N-[6-(4-bromophenyl)-1-(difluoromethoxy)-6H-benzo[c]chromen-8-yl]methanesulfonamide]", "IC50": 250}, {"smiles": "COc1cccc2c1-c1ccc(NS(C)(=O)=O)cc1C(c1cccc(C#Cc3ccccc3)c1)O2", "note": "(centres unmarked) [Example 91, N-{1-methoxy-6-[3-(phenylethynyl)phenyl]-6H-benzo[c]chromen-8-yl}methanesulfonamide]", "IC50": "> 1000"}, {"smiles": "COc1cccc2c1-c1ccc(NS(C)(=O)=O)cc1C(c1ccccc1)O2", "note": "(centres unmarked) [Example 5, N-(1-methoxy-6-phenyl-6H-dibenzo[b,d]pyran-8-yl)methanesulfonamide]", "IC50": 3350}, {"smiles": "COc1ccc(-c2cccc(C3Oc4cccc(OC)c4-c4ccc(NS(C)(=O)=O)cc43)c2)cc1", "note": "(centres unmarked) [Example 125, N-[1-methoxy-6-(4′-methoxy[1,1′-biphenyl]-3-yl)-6H-benzo[c]chromen-8-yl]methanesulfonamide]", "IC50": "> 10000"}, {"smiles": "C=CCOc1cccc(C2Oc3cccc(OC(F)F)c3-c3ccc(NS(C)(=O)=O)cc32)c1", "note": "(centres unmarked) [Example 116, N-[6-[3-(allyloxy)phenyl]-1-(difluoromethoxy)-6H-benzo[c]chromen-8-yl]methanesulfonamide]", "IC50": 1050}, {"smiles": "C=Cc1c(NS(C)(=O)=O)ccc2c1C(c1cccc(C(F)(F)F)c1)Oc1cccc(OC)c1-2", "note": "(centres unmarked) [Example 3, (1-methoxy-6-(3-trifluoromethyl)phenyl-7-vinyl-6H-dibenzo(b,d)pyran-8-yl)methanesulfonamide]", "IC50": "> 10000"}, {"smiles": "CCCCC/C=C/C1Oc2cccc(OC)c2-c2ccc(NS(C)(=O)=O)cc21", "note": "(centres unmarked) [Example 98, N-{6-[(1E)-1-heptenyl]-1-methoxy-6H-benzo[c]chromen-8-yl}methanesulfonamide]", "IC50": 92}, {"smiles": "CS(=O)(=O)Nc1ccc2c(c1)C(c1cccc(-c3ccc(Cl)cc3)c1)Oc1cccc(OC(F)F)c1-2", "note": "(centres unmarked) [Example 143, N-[6-(4′-chloro[1,1′-biphenyl]-3-yl)-1-(difluoromethoxy)-6H-benzo[c]chromen-8-yl]methanesulfonamide]", "IC50": 220}, {"smiles": "COc1cccc2c1-c1ccc(NS(C)(=O)=O)cc1C(c1cccc(-c3ccc(C)cc3)c1)O2", "note": "(centres unmarked) [Example 123, N-[1-methoxy-6-(4′-methyl[1,1′-biphenyl]-3-yl)-6H-benzo[c]chromen-8-yl]methanesulfonamide]", "IC50": "> 10000"}, {"smiles": "COCCCc1cccc(C2Oc3cccc(OC(F)F)c3-c3ccc(NS(C)(=O)=O)cc32)c1", "note": "(centres unmarked) [Example 117, N-{1-(difluoromethoxy)-6-[3-(3-methoxypropyl)phenyl]-6H-benzo[c]chromen-8-yl}methanesulfonamide]", "IC50": 430}, {"smiles": "COc1cccc2c1-c1ccc(NS(C)(=O)=O)cc1C(c1ccc(-c3ccccc3)s1)O2", "note": "(centres unmarked) [Example 100, N-[1-methoxy-6-(5-phenyl-2-thienyl)-6H-benzo[c]chromen-8-yl]methanesulfonamide]", "IC50": 250}, {"smiles": "COc1cccc2c1-c1ccc(NS(C)(=O)=O)cc1C(c1cccc(-c3ccc(N(C)C)cc3)c1)O2", "note": "(centres unmarked) [Example 133, N-{6-[4′-(dimethylamino)[1,1′-biphenyl]-3-yl]-1-methoxy-6H-benzo[c]chromen-8-yl}methanesulfonamide]", "IC50": "> 10000"}, {"smiles": "CS(=O)(=O)Nc1ccc2c(c1)C(c1ccc(Br)s1)Oc1cccc(OC(F)F)c1-2", "note": "(centres unmarked) [Example 96, N-{6-(5-bromo-2-thienyl)-1-(difluoromethoxy)-6H-benzo[c]chromen-8-yl}methanesulfonamide]", "IC50": 120}, {"smiles": "COc1cccc2c1-c1ccc(NS(C)(=O)=O)cc1C(c1cccc(-c3ccc(Cl)cc3)c1)O2", "note": "(centres unmarked) [Example 126, N-[6-(4′-chloro[1,1′-biphenyl]-3-yl)-1-methoxy-6H-benzo[c]chromen-8-yl]methanesulfonamide]", "IC50": "> 10000"}, {"smiles": "O=S(=O)(Nc1ccc2c(c1)C(c1ccccc1)Oc1cccc(OC(F)F)c1-2)c1cccs1", "note": "(centres unmarked) [Example 26, N-(1-difluoromethoxy-6-phenyl-6H-dibenzo[b,d]pyran-8-yl)-thiophene-2-sulfonamide]", "IC50": 29}, {"smiles": "COc1cccc2c1-c1ccc(NS(C)(=O)=O)cc1C(c1cccc(-c3ccc(Cl)c(Cl)c3)c1)O2", "note": "(centres unmarked) [Example 127, N-[6-(3′,4′-dichloro[1,1′-biphenyl]-3-yl)-1-methoxy-6H-benzo[c]chromen-8-yl]methanesulfonamide]", "IC50": "> 10000"}, {"smiles": "CCS(=O)(=O)N(C)c1cccc(C2Oc3cccc(OC)c3-c3ccc(NS(C)(=O)=O)cc32)c1", "note": "(centres unmarked) [Example 131, N-(3-{1-methoxy-8-[(methylsulfonyl)amino]-6H-benzo[c]chromen-6-yl}phenyl)-N-methylethanesulfonamide]", "IC50": "> 10000"}, {"smiles": "COc1cccc2c1-c1ccc(NS(C)(=O)=O)cc1C(c1ccc(C#Cc3ccccc3)s1)O2", "note": "(centres unmarked) [Example 93, N-{1-methoxy-6-[5-(phenylethynyl)-2-thienyl]-6H-benzo[c]chromen-8-yl}methanesulfonamide]", "IC50": "> 1000"}, {"smiles": "CS(=O)(=O)Nc1ccc2c(c1)C(c1cccc(CCCCc3ccccc3)c1)Oc1cccc(OC(F)F)c1-2", "note": "(centres unmarked) [Example 136, N-{1-(difluoromethoxy)-6-[3-(4-phenylbutyl)phenyl]-6H-benzo[c]chromen-8-yl}methanesulfonamide]", "IC50": "> 10000"}, {"smiles": "COc1cccc2c1-c1ccc(NS(C)(=O)=O)cc1C(c1cccc(N(C)S(=O)(=O)CCCCl)c1)O2", "note": "(centres unmarked) [Example 130, 3-chloro-N-(3-{1-methoxy-8-[(methylsulfonyl)amino]-6H-benzo[c]chromen-6-yl}phenyl)-N-methyl-1-propanesulfonamide]", "IC50": "> 10000"}, {"smiles": "COc1cccc2c1-c1ccc(NS(C)(=O)=O)cc1C(c1cc(C)cc(C)c1)O2", "note": "(centres unmarked) [Example 87, N-[6-(3,5-dimethylphenyl)-1-methoxy-6H-benzo[c]chromen-8-yl]methanesulfonamide]", "IC50": 210}, {"smiles": "CS(=O)(=O)Nc1ccc2c(c1)C(c1cccc(-c3ccc(F)cc3)c1)Oc1cccc(OC(F)F)c1-2", "note": "(centres unmarked) [Example 144, N-[1-(difluoromethoxy)-6-(4′-fluoro[1,1′-biphenyl]-3-yl)-6H-benzo[c]chromen-8-yl]methanesulfonamide]", "IC50": 140}, {"smiles": "Cc1ccc(-c2cccc(C3Oc4cccc(OC(F)F)c4-c4ccc(NS(C)(=O)=O)cc43)c2)cc1", "note": "(centres unmarked) [Example 147, N-[1-(difluoromethoxy)-6-(4′-methyl[1,1′-biphenyl]-3-yl)-6H-benzo[c]chromen-8-yl]methanesulfonamide]", "IC50": 530}, {"smiles": "COc1cccc2c1-c1ccc(NS(C)(=O)=O)cc1C(c1cccc(N(C)S(=O)(=O)c3ccc(Br)cc3)c1)O2", "note": "(centres unmarked) [Example 152, 4-bromo-N-(3-{1-methoxy-8-[(methylsulfonyl)amino]-6H-benzo[c]chromen-6-yl}phenyl)-N-methylbenzenesulfonamide]", "IC50": "≥ 10000"}, {"smiles": "COc1cccc2c1-c1ccc(NS(C)(=O)=O)cc1C(c1cccc(N(C)S(=O)(=O)c3ccccc3)c1)O2", "note": "(centres unmarked) [Example 129, N(3-{1-methoxy-8-[(methylsulfonyl)amino]-6H-benzo[c]chromen-6-yl}phenyl)-N-methylbenzenesulfonamide]", "IC50": "> 10000"}, {"smiles": "C=CCN(C)c1cccc(C2Oc3cccc(OC)c3-c3ccc(NS(C)(=O)=O)cc32)c1", "note": "(centres unmarked) [Example 80, N-(6-{3-[allyl(methyl)amino]phenyl}-1-methoxy-6H-benzo[c]chromen-8-yl)methanesulfonamide]", "IC50": 620}, {"smiles": "COc1ccc(-c2cccc(C3Oc4cccc(OC(F)F)c4-c4ccc(NS(C)(=O)=O)cc43)c2)cc1", "note": "(centres unmarked) [Example 145, N-[1-(difluoromethoxy)-6-(4′-methoxy[1,1′-biphenyl]-3-yl)-6H-benzo[c]chromen-8-yl]methanesulfonamide]", "IC50": 390}, {"smiles": "CS(=O)(=O)Nc1ccc2c(c1)C(c1cccc(Br)c1)Oc1cccc(OC(F)F)c1-2", "note": "(centres unmarked) [Example 103, N-[6-(3-bromophenyl)-1-(difluoromethoxy)-6H-benzo[c]chromen-8-yl]methanesulfonamide]", "IC50": 180}, {"smiles": "COCC#Cc1ccc(C2Oc3cccc(OC)c3-c3ccc(NS(C)(=O)=O)cc32)s1", "note": "(centres unmarked) [Example 92, N-{1-methoxy-6-[5-(3-methoxy-1-propynyl)-2-thienyl]-6H-benzo[c]chromen-8-yl}methanesulfonamide]", "IC50": 51}, {"smiles": "CCOC(=O)CCc1cccc(C2Oc3cccc(OC(F)F)c3-c3ccc(NS(C)(=O)=O)cc32)c1", "note": "(centres unmarked) [Example 118, ethyl 3-(3-{1-(difluoromethoxy)-8-[(methylsulfonyl)amino]-6H-benzo[c]chromen-6-yl}phenyl)propanoate]", "IC50": 610}]}]}
